Data taken from PMC5042776 (Molecular Medicine Reports, 2016).
In brackets after ≈: the same amount, converted by molar mass. Like-named read-outs stand apart in the source and are kept apart here. Marks after values point to notes of the source that are not given here.

Tests used:
[1] = system: influenza A/PR/8/34 virus (H1N1 subtype); assay: microbe, parasite or virus in culture; type: cell-based; details: for SI (H1N1): CC50/IC50; for IC50: Influenza A virus, H1N1|PR/8, MDCK, 72 h, read-out: IC50 (H1N1)
[2] = system: A/shenzhen/203/2001 (H3N2 subtype); assay: microbe, parasite or virus in culture; type: cell-based, influenza A virus; details: for SI (H3N2): CC50/IC50; for IC50: Influenza A virus, H3N2, MDCK, 72 h, read-out: IC50 (H3N2)
[3] = Cytotoxicity assay; type: cell-based, canine; details: dog, MDCK cells
[4] = system: influenza A virus (IAV); assay: IAV-induced acute lung injury in mice; type: in vivo, ICR mice
[5] = system: influenza A virus (IAV); type: in vivo, ICR mice
[6] = system: serum IFN-β, IL-6, TNF-α, IL-1β; type: in vivo, ICR mice; details: after 5 days of treatment
[7] = system: Toll-like receptor 7 (TLR7) signaling pathway; type: in vivo, ICR mice
[8] = 10 mg/kg intragastric once daily 5 days
[9] = 20 mg/kg intragastric once daily 5 days
[10] = 40 mg/kg intragastric once daily 5 days
[11] = 50 mg/kg intragastric once daily 5 days

In the case of `C=C1CCC[C@]2(C)Cc3occ(C)c3C[C@@H]12` [Atractylon, atractylon], the “SI (H1N1)” value [1] is reported as 29.4, the “SI values relative to those of ribavirin” value ([1]; H1N1 and H3N2) is reported as “approximately 3 fold” and the IC50 [1] is reported as 8.9 µg/mL (≈ 41.1 µM). For the same compound, the “SI (H3N2)” value [2] was 27.8, the IC50 [2] was 9.4 µg/mL (≈ 43.5 µM) and the CC50 at 3 days [3] was 261 µg/mL (≈ 1210 µM). The “Inhibitory rate (lung index)” value [4, 8] was 27.5%, the Lung index [4, 8] was 17.43±4.16 ^a mg/g and the “Viral load (lung)” value [4, 8] was 4.79±0.84 ^b ×10^6 copies. The “Inhibitory rate (lung index)” value [4, 9] was 58.8%, the Lung index [4, 9] was 13.08±4.54 ^b mg/g and the “Viral load (lung)” value [4, 9] was 2.56±0.72 ^b ×10^6 copies. The “Inhibitory rate (lung index)” value [4, 10] was 74.5%, the Lung index [4, 10] was 10.90±3.76 ^b mg/g and the “Viral load (lung)” value [4, 10] was 0.36±0.15 ^b ×10^6 copies. For the same compound, the “histological damage of lung” value ([4]; 10–40 mg/kg, H&E staining) was “improved”, the Life prolong rate [5, 8] was 17.7% and the “MDD ± SD (mean day to death)” value [5, 8] was 9.3±3.6 ^a day. The Survival rate [5, 8] was 30.0%, the Survived/total [5, 8] was 6/20 and the Life prolong rate [5, 9] was 41.8%. For the same compound, the “MDD ± SD (mean day to death)” value [5, 9] was 11.2±3.3 ^a day, the Survival rate [5, 9] was 55.0% and the Survived/total [5, 9] was 11/20. For the same compound, the Life prolong rate [5, 10] was 57.0%, the “MDD ± SD (mean day to death)” value [5, 10] was 12.4±2.6 ^a day and the Survival rate [5, 10] was 70.0%. For the same compound, the Survived/total [5, 10] was 14/20, the “IFN-β (serum)” value ([6]; 10 mg/kg) was 25.8 ± 2.87 pg/mL and the “IL-1β (serum)” value ([6]; 10 mg/kg) was 17.2±1.35 ^b pg/ml. The “IL-6 (serum)” value ([6]; 10 mg/kg) was 19.5±2.76 ^b pg/ml, the “TNF-α (serum)” value ([6]; 10 mg/kg) was 16.2±2.27 ^a pg/ml and the “IFN-β (serum)” value ([6]; 20 mg/kg) was 29.4±3.27 ^a pg/ml. For the same compound, the “IL-1β (serum)” value ([6]; 20 mg/kg) was 16.5±1.17 ^b pg/ml, the “IL-6 (serum)” value ([6]; 20 mg/kg) was 17.4±1.11 ^b pg/ml and the “TNF-α (serum)” value ([6]; 20 mg/kg) was 11.8±1.94 ^b pg/ml. The “IFN-β (serum)” value ([6]; 40 mg/kg) was 30.8±3.31 ^b pg/ml, the “IL-1β (serum)” value ([6]; 40 mg/kg) was 13.4±0.74 ^b pg/ml and the “IL-6 (serum)” value ([6]; 40 mg/kg) was 12.8±1.16 ^b pg/ml. For the same compound, the “TNF-α (serum)” value ([6]; 40 mg/kg) was 9.20±0.77 ^b pg/ml, the “mRNA expressions of TLR7, MyD88, TRAF6 and IFN-β in lung tissue” value ([7]; compared with model control group, P<0.01) was “obviously upregulated” and the “NF-κB p65 protein expression in lung tissue” value ([7]; mouse, in vivo) was “downregulated”.
In the case of `C=C1CCC[C@]2(C)C[C@]3(O)OC(=O)C(C)=C3C[C@@H]12` [Atractylenolide III, atractylenolide III], the “SI (H1N1)” value [1] is reported as 7.8, the IC50 [1] is reported as 24.4 µg/mL (≈ 98.3 µM) and the “SI (H3N2)” value [2] is reported as 6.7. The IC50 [2] was 28.6 µg/mL (≈ 115 µM) and the CC50 at 3 days [3] was 191 µg/mL (≈ 770 µM).
For `NC(=O)c1ncn([C@@H]2O[C@H](CO)[C@@H](O)[C@H]2O)n1` [Ribavirin, reference compound], the “SI (H1N1)” value [1] was 8.2, the IC50 [1] was 14.2 µg/mL (≈ 58.1 µM) and the “SI (H3N2)” value [2] was 10.9. The IC50 [2] was 10.7 µg/mL (≈ 43.8 µM), the CC50 at 3 days [3] was 116 µg/mL (≈ 476 µM) and the “Inhibitory rate (lung index)” value [4, 11] was 61.7%. The Lung index [4, 11] was 12.68±3.30 ^b mg/g, the “Viral load (lung)” value [4, 11] was 1.38±0.56 ^b ×10^6 copies and the Life prolong rate [5, 11] was 40.5%. For the same compound, the “MDD ± SD (mean day to death)” value [5, 11] was 11.1±3.1 ^a day, the Survival rate [5, 11] was 50.0% and the Survived/total [5, 11] was 10/20. The “IFN-β (serum)” value ([6]; 50 mg/kg) was 23.3 ± 2.79 pg/mL, the “IL-1β (serum)” value ([6]; 50 mg/kg) was 21.6 ± 3.36 pg/mL and the “IL-6 (serum)” value ([6]; 50 mg/kg) was 18.5±5.99 ^b pg/ml. The “TNF-α (serum)” value ([6]; 50 mg/kg) was 13.4±1.54 ^b pg/ml.
